Reference: patent US20230192705A1, “SHP2 INHIBITORS, COMPOSITIONS AND USES THEREOF” (Betta Pharmaceuticals Co., Ltd, priority 2020, published 2023)
Like-named read-outs stand apart in the source and are kept apart here.

What was measured:
leukemia MV-4-11 cell = assay: Cell proliferation assay (CellTiter-Glo), MV-4-11; format: cell-based; conditions: Homo sapiens, MV4-11, MV-4-11, 120 hrs, CTG, read-out: Compound on MV-4-11 cell IC50
Experimental: (§1) The effects of the compounds on the proliferation of leukemia MV-4-11 cell and lung cancer NCI-H358 cell were evaluated by in vitro cell test. The assay used in this study was the CELL TITER-GLO (CTG) luminescence assay, which can detect the number of living cells by quantitative determination of ATP. Because ATP is involved in a variety of enzymatic reactions in vivo and is an indicator of the metabolism of living cells, its content can directly reflects the number and state of cells. During the experiment, Celltiter-Glo™ reagent was added to the cell culture medium to measure the luminescence value. The luminescence value was proportional to the amount of ATP, which in turn was positively correlated with the number of living cells. Therefore, ATP content can be used to detect cell viability.
A bottle of MV-4-11 cells in logarithmic growth phase was taken, the cells were collected, centrifuged, resuspend, counted, and then inoculated into 96-well Microplate (Corning #3917), with 4000 cells inoculated in each well. The plates were placed in an incubator at 37° C. and 5% CO2 for 24 hrs culture, and the compounds of the invention were added for conducting.
(§2) An appropriate amount of the compound of the invention was taken for cell treatment, and the final concentration of the compound from high to low was 1000 nM, 333.3 nM, 111.1 nM, 37.04 nM, 12.35 nM, 4.115 nM, 1.372 nm, 0.4572 nM, 0.1524 nM, 0 nM, respectively. The orifice plate was cultured in an incubator at 37° C. and 5% CO2. Only adding medium without adding cell hole was set as blank group. Compound concentration of 0 nM group was zero control group.
After cultured for 120 hrs, MV-4-11 cells were added with 50 μL CellTiter-Glo® Luminescent cell viability assay solution in each well, gently shaken for 2 mins, and incubated at room temperature for 10 mins. The detection values of each well were read on the multi-functional microplate reader.
(§3) The inhibition rate is calculated according to the luminous value reading,
(§4) Inhibition rate %=(1−(administration group value−blank group value)/(control group value−blank group value)*100
(§5) The log (inhibitor) vs. response variable slope of GraphPad Prism was used to fit the dose-response curve and calculate the IC50 of compounds inhibiting cell proliferation.

SHP2 = molecular target: T1, SHP2 (Homo sapiens, UniProt Q06124); assay: SHP2 allosteric inhibitor enzyme activity assay (DiFMUP fluorescence); format: biochemical
T1 sequence (Q06124 1-593): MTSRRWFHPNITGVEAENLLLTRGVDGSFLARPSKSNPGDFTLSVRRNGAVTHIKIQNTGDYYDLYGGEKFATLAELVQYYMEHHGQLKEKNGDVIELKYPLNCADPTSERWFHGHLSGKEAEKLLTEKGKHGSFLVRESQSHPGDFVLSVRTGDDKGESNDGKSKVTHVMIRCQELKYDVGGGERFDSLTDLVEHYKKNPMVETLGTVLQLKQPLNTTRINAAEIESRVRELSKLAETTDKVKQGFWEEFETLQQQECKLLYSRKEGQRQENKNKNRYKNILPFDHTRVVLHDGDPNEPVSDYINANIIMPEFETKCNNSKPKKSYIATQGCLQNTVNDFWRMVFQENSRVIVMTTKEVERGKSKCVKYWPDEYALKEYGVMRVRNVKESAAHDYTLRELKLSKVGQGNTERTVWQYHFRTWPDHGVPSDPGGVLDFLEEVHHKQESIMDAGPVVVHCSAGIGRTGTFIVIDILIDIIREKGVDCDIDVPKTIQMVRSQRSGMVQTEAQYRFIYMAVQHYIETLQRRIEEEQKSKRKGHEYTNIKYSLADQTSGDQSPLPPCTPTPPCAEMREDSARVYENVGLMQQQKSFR
In short: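 SHP2 activated by 0.5 μM IRS1_pY1172(dPEG8)pY1222 peptide, 0.2 ng enzyme per well, 1 h at room temperature with compound (1 μM top, 3-fold series), then DiFMUP substrate 1 h. Buffer: 60 mM HEPES, 75 mM NaCl, 75 mM KCl, 0.05% BRIJ-35, 1 mM EDTA, 5 mM DTT. Fluorescence ex 340/em 450 nm; IC50 by variable-slope fit.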

[1] = test system: lung cancer NCI-H358 cell; assay: Cell proliferation assay (CellTiter-Glo), NCI-H358; format: cell-based; conditions: Homo sapiens, NCI-H358, 96 hrs, CTG, read-out: Compound on NCI-H358 cell IC50
Experimental: as §1
A bottle of NCI-H358 cells in logarithmic growth phase was taken, the cells were digested and resuspend, counted, and then the cell density was adjusted. After that, the cells were inoculated into a 96-well Ultra-Low Attachment Microplate (Corning #3474), 2000 cells were inoculated in each well, and the well plate was placed in an incubator at 37° C. and 5% CO2, and the compounds of the invention were added for conducting.
as §2
NCI-H358 cells were cultured for 96 hrs, then 50 μL CellTiter-Glo® Luminescent cell viability assay solution was added to each well, and the cells were gently shaken for 2 mins, and incubated at room temperature for 10 mins. The cell reaction system was transferred to 96-well Microplate (Corning #3917). The detection values of each well were read on the multi-functional microplate reader.
as §3, §4, §5

Row | IC50 (leukemia MV-4-11 cell; class symbols) [nM] | IC50 (SHP2; class symbols) [nM] | IC50 ([1]; class symbols) [nM] | IC50 (leukemia MV-4-11 cell; numeric values) [nM] | IC50 (SHP2; numeric values) [nM] | IC50 ([1]; numeric values) [nM] | Structure (SMILES)
1 | ≤ 20 | ≤ 20 | ≤ 20 |  |  |  | C#Cc1cccc(C2(c3n[nH]c4nc(N5CCC6(CC5)Cc5ccccc5[C@H]6N)[nH]c(=O)c34)CC2)c1 [Example 222, (S)-6-(1-amino-1,3-dihydrospiro[indene-2,4′-piperidin]-1′-yl)-3-(1-(3-ethynylphenyl)cyclopropyl)-1,5-dihydro-4H-pyrazolo[3,4-d]pyrimidin-4-one]
2 |  |  |  | 1.7 | 0.48 | 1.6 | N[C@@H]1c2ccccc2CC12CCN(c1nc3[nH]nc(C4=CCOc5c(F)cccc54)c3c(=O)[nH]1)CC2 [Example 124]
3 | ≤ 20 |  | ≤ 20 |  | 0.9 |  | Cc1cccc(C2(c3n[nH]c4nc(N5CCC6(CC5)Cc5ccccc5[C@H]6N)[nH]c(=O)c34)CC2)c1 [Example 10, (S)-6-(1-amino-1,3-dihydrospiro[indene-2,4′-piperidin]-1′-yl)-3-(1-(m-tolyl)cyclopropyl)-1,5-dihydro-4H-pyrazolo[3,4-d]pyrimidin-4-one]
4 | ≤ 20 | ≤ 20 | ≤ 20 |  |  |  | N[C@@H]1c2ccccc2CC12CCN(c1nc3[nH]nc(C4(c5cccc(Cl)c5)CC4)c3c(=O)[nH]1)CC2 [Example 4, (S)-6-(1-amino-1,3-dihydrospiro[indene-2,4′-piperidin]-1′-yl)-3-(1-(3-chlorophenyl)cyclopropyl)-1,5-dihydro-4H-pyrazolo[3,4-d]pyrimidin-4-one]
5 | 20 to 60 | ≤ 20 | 20 to 60 |  |  |  | CC1(C)C=C(c2n[nH]c3nc(N4CCC5(CC4)Cc4ccccc4[C@H]5N)[nH]c(=O)c23)c2ccc(C(F)(F)F)nc2C1 [Example 144, (S)-6-(1-amino-1,3-dihydrospiro[indene-2,4′-piperidin]-1′-yl)-3-(7,7-dimethyl-2-(trifluoromethyl)-7,8-dihydroquinolin-5-yl)-1,5-dihydro-4H-pyrazolo[3,4-d]pyrimidin-4-one]
6 |  |  |  | 2.8 | 1.6 | 2 | N[C@@H]1c2ccccc2CC12CCN(c1nc3[nH]nc(C4=CCCc5nc(Cl)ccc54)c3c(=O)[nH]1)CC2 [Example 139, (S)-6-(1-amino-1,3-dihydrospiro[indene-2,4′-piperidin]-1′-yl)-3-(2-chloro-7,8-dihydroquinolin-5-yl)-1,5-dihydro-4H-pyrazolo[3,4-d]pyrimidin-4-one]
7 |  |  |  | 454 |  | 1810 | N[C@@H]1c2ccccc2CC12CCN(c1nn3cc(C4CC4)nc3s1)CC2 [Comparative compound 2, reference compound]
8 |  | ≤ 20 |  | 2.8 |  | 11 | CC(=O)c1cccc(C2(c3n[nH]c4nc(N5CCC6(CC5)Cc5ccccc5[C@H]6N)[nH]c(=O)c34)CC2)c1 [Example 223, (S)-3-(1-(3-acetylphenyl)cyclopropyl)-6-(1-amino-1,3-dihydrospiro[indene-2,4′-piperidin]-1′-yl)-1,5-dihydro-4H-pyrazolo[3,4-d]pyrimidin-4-one]
9 | ≤ 20 | ≤ 20 | ≤ 20 |  |  |  | COc1cccc(C2(c3n[nH]c4nc(N5CCC6(CC5)Cc5ccccc5[C@H]6N)[nH]c(=O)c34)CC2)c1 [Example 18, (S)-6-(1-amino-1,3-dihydrospiro[indene-2,4′-piperidin]-1′-yl)-3-(1-(3-methoxyphenyl)cyclopropyl)-1,5-dihydro-4H-pyrazolo[3,4-d]pyrimidin-4-one]
10 |  |  |  | 2.1 | 1.1 | 1.1 | N#Cc1ccc2c(c1)CCC=C2c1n[nH]c2nc(N3CCC4(CC3)Cc3ccccc3[C@H]4N)[nH]c(=O)c12 [Example 122, (S)-5-(6-(1-amino-1,3-dihydrospiro[indene-2,4′-piperidin]-1′-yl)-4-oxo-4,5-dihydro-1H-pyrazolo[3,4-d]pyrimidin-3-yl)-7,8-dihydronaphthalene-2-carbonitrile]
11 |  | 20 to 60 |  |  |  |  | C[C@@H]1OCC2(CCN(c3nc4[nH]nc(C5(c6ccccc6)CC5)c4c(=O)n3C)CC2)[C@@H]1N [Example 272, 6-((3S,4S)-4-amino-3-methyl-2-oxa-8-azaspiro[4.5]decan-8-yl)-5-methyl-3-(1-phenylcyclopropyl)-1,5-dihydro-4H-pyrazolo[3,4-d]pyrimidin-4-one]
12 |  | > 60 |  |  |  |  | C[C@@H]1OCC2(CCN(c3nc4[nH]nc(C5(c6ccc7c(c6)OC(F)(F)O7)CC5)c4c(=O)[nH]3)CC2)[C@@H]1N [Example 308, 6-((3S,4S)-4-amino-3-methyl-2-oxa-8-azaspiro[4.5]decan-8-yl)-3-(1-(2,2-difluorobenzo[d][1,3]dioxol-5-yl)cyclopropyl)-1,5-dihydro-4H-pyrazolo[3,4-d]pyrimidin-4-one]
13 |  | 20 to 60 |  |  |  |  | C[C@@H]1OCC2(CCN(c3nc4[nH]nc(C5(c6ccc(N)cc6)CC5)c4c(=O)[nH]3)CC2)[C@@H]1N [Example 299, 6-((3S,4S)-4-amino-3-methyl-2-oxa-8-azaspiro[4.5]decan-8-yl)-3-(1-(4-aminophenyl)cyclopropyl)-1,5-dihydro-4H-pyrazolo[3,4-d]pyrimidin-4-one]
14 |  | 20 to 60 |  |  |  |  | C[C@@H]1OCC2(CCN(c3nc4[nH]nc(C5(c6ccc(O)cc6)CC5)c4c(=O)[nH]3)CC2)[C@@H]1N [Example 311, 6-((3S,4S)-4-amino-3-methyl-2-oxa-8-azaspiro[4.5]decan-8-yl)-3-(1-(4-hydroxyphenyl)cyclopropyl)-1,5-dihydro-4H-pyrazolo[3,4-d]pyrimidin-4-one]
15 |  | ≤ 20 |  |  |  |  | N[C@@H]1c2ccccc2CC12CCN(c1nc3[nH]nc(C4=CC(F)(F)c5ccccc54)c3c(=O)[nH]1)CC2 [Example 175, (S)-6-(1-amino-1,3-dihydrospiro[indene-2,4′-piperidin]-1′-yl)-3-(1,1-difluoro-1H-inden-3-yl)-1,5-dihydro-4H-pyrazolo[3,4-d]pyrimidin-4-one]
16 |  | ≤ 20 |  |  |  |  | CN1CC=C(c2n[nH]c3nc(N4CCC5(CC4)Cc4ccccc4[C@H]5N)[nH]c(=O)c23)c2ccccc21 [Compound 178, (S)-6-(1-amino-1,3-dihydrospiro[indene-2,4′-piperidin]-1′-yl)-3-(1-methyl-1,2-dihydroquinolin-4-yl)-1,5-dihydro-4H-pyrazolo[3,4-d]pyrimidin-4-one, reference compound]
17 |  | ≤ 20 |  |  |  |  | N[C@@H]1c2ccccc2CC12CCN(c1nc3[nH]nc(C4=CC5(COC5)c5ccccc54)c3c(=O)[nH]1)CC2 [Example 170, (S)-6-(1-amino-1,3-dihydrospiro[indene-2,4′-piperidin]-1′-yl)-3-(spiro[indene-1,3′-oxetan]-3-yl)-1,5-dihydro-4H-pyrazolo[3,4-d]pyrimidin-4-one]
